Here are results for 1 molecule from patent US20130331412A9, “Pharmaceutical Compositions and Administrations Thereof” (VERTEX PHARMACEUTICALS INCORPORATED, priority 2010, published 2013).

What all share (format): cell-based
The target in test [1] is T1, ΔF508-CFTR (Homo sapiens, UniProt P13569, DEL508-508).
T1 construct: expressed in transfected cells; host or cells: NIH3T3 mouse fibroblasts
Briefly: Membrane potential optical assay for ΔF508-CFTR potentiation (FLIPR III). Conditions: relative efficacy; ΔF508-CFTR NIH 3T3 cells. The source says: The assay utilizes fluorescent voltage sensing dyes to measure changes in membrane potential using a fluorescent plate reader (e.g., FLIPR III, Molecular Devices, Inc.) as a readout for increase in functional ΔF508-CFTR in NIH 3T3 cells. The driving force for the response is the creation of a chloride ion gradient in conjunction with channel activation by a single liquid addition step after the cells have previously been treated with compounds and subsequently loaded with a voltage sensing dye. To identify potentiators of ΔF508-CFTR, a double-addition HTS assay format was developed. This HTS assay utilizes fluorescent voltage sensing dyes to measure changes in membrane potential on the FLIPR III as a measurement for increase in gating (conductance) of ΔF508 CFTR in temperature-corrected ΔF508 CFTR NIH 3T3 cells. The driving force for the response is a Cl^− ion gradient in conjunction with channel activation with forskolin in a single liquid addition step using a fluorescent plate reader such as FLIPR III after the cells have previously been treated with potentiator compounds (or DMSO vehicle control) and subsequently loaded with a redistribution dye. Bath Solution #1: (in mM) NaCl 160, KCl 4.5, CaCl2 2, MgCl2 1, HEPES10, pH 7.4 with NaOH. Chloride-free bath solution: Chloride salts in Bath Solution #1 (above) are substituted with gluconate salts. […]

Test [2] addresses T2, human CFTR mutant A455E (Homo sapiens, UniProt P13569, A455E).
T2 construct: expressed in transfected cells; host or cells: Fisher rat thyroid (FRT) FlpIn cells, pcDNA5/FRT
As to the kind of experiment: FRT cell Ussing chamber chloride transport assay. Conditions: FRT cells expressing A455E CFTR. The source says:
(§1) DNA cloning: Wild-type CFTR coding region was inserted into pcDNA5/FRT (Invitrogen, San Diego, Calif.) between EcoRV and ApaI.
(§2) Single CFTR gene mutations were introduced into the wild-type CFTR coding sequence by using QuickChange XL site-directed mutagenesis kit (Stratagene, Cambridge, UK). The CFTR coding region as well as its promoter sequence and 3′ untranslated sequence was fully sequenced to confirm the mutagenesis reaction.
(§3) The CFTR gene was stably expressed in Fisher rat thyroid (FRT) cells through FlpIn system. The FRT-FlpIn host cell line was generated by stably transfecting FRT cells with pFRT/lacZeo. The single integration of a FRT site was confirmed by Southern blot. After the mutant CFTR DNA was transfected into the FRT-FlpIn host cell line, the cells were incubate at 37° C. in Coon's modified Ham's F12 containing 10% FBS, 1% Pen/Strep, and 36 ml of Na− Bicarbonate for up to 8 passages under hygromycin selection (200 ug/ml).
(§4) All cells were grown on Costar® Snapwell™ cell culture inserts at maintained at 37° C. prior to recording. The cell culture inserts were mounted into an Ussing chamber (VCC MC8; Physiologic Instruments, Inc., San Diego, Calif.) to record ISC in the voltage-clamp mode (Vhold=0 mV). For FRT cells, the basolateral membrane was permeabilized with 360 μg/ml Nystatin and a basolateral to apical Cl− gradient was established. The basolateral bath solution contained (in mM); 135 NaCl, 1.2 CaCl2, 1.2 MgCl2, 2.4 K2HPO4, 0.6 KHPO4, 10 N-2-hydroxyethylpiperazine-N′-2-ethanesulfonic acid (HEPES), and 10 dextrose (titrated to pH 7.4 with NaOH). The apical NaCl was replaced by equimolar Na+ gluconate (titrated to pH 7.4 with NaOH). For HBE cells, the ISC was measured in the presence of a basolateral to apical Cl− gradient. The normal Cl− solution contained (in mM) 145 NaCl, 3.3 K2HPO4, 1.2 MgCl2, 1.2 CaCl2, 10 Glucose, 10 HEPES (pH adjusted to 7.35 with NaOH) and the low Cl− solution contained (in mM) 145 NaGluconate, 1.2 MgCl2, 1.2 CaCl2, 10 glucose, 10 HEPES (pH adjusted to 7.35 with NaOH). All recordings were digitally acquired using a Acquire and Analyze software (version 2; Physiologic Instruments, Inc. San Diego, Calif.).
(§5) The 10 μM forskolin stimulated response in FRT cell expressing different mutant CFTR forms or in HBE cells isolated from CF patients was normalized to the 10 μM forskolin-stimulated response in FRT cells expressing wild-type CFTR or in HBE isolated from non-CF individuals and expressed as % wild-type CFTR. In HBE, amiloride was added prior to forskolin application to block the epithelial Na+ channel.

Test [3] addresses T3, human CFTR mutant D110E (Homo sapiens, UniProt P13569, D110E).
T3 construct: expressed in transfected cells; host or cells: Fisher rat thyroid (FRT) FlpIn cells, pcDNA5/FRT
As to the kind of experiment: FRT cell Ussing chamber chloride transport assay. The conditions noted are these: FRT cells expressing D110E CFTR.
Source text: as §1, §2, §3, §4, §5

The target in test [4] is T4, human CFTR mutant D110H (Homo sapiens, UniProt P13569, D110H).
T4 construct: expressed in transfected cells; host or cells: Fisher rat thyroid (FRT) FlpIn cells, pcDNA5/FRT
T4 sequence (P13569 whole entry D110H): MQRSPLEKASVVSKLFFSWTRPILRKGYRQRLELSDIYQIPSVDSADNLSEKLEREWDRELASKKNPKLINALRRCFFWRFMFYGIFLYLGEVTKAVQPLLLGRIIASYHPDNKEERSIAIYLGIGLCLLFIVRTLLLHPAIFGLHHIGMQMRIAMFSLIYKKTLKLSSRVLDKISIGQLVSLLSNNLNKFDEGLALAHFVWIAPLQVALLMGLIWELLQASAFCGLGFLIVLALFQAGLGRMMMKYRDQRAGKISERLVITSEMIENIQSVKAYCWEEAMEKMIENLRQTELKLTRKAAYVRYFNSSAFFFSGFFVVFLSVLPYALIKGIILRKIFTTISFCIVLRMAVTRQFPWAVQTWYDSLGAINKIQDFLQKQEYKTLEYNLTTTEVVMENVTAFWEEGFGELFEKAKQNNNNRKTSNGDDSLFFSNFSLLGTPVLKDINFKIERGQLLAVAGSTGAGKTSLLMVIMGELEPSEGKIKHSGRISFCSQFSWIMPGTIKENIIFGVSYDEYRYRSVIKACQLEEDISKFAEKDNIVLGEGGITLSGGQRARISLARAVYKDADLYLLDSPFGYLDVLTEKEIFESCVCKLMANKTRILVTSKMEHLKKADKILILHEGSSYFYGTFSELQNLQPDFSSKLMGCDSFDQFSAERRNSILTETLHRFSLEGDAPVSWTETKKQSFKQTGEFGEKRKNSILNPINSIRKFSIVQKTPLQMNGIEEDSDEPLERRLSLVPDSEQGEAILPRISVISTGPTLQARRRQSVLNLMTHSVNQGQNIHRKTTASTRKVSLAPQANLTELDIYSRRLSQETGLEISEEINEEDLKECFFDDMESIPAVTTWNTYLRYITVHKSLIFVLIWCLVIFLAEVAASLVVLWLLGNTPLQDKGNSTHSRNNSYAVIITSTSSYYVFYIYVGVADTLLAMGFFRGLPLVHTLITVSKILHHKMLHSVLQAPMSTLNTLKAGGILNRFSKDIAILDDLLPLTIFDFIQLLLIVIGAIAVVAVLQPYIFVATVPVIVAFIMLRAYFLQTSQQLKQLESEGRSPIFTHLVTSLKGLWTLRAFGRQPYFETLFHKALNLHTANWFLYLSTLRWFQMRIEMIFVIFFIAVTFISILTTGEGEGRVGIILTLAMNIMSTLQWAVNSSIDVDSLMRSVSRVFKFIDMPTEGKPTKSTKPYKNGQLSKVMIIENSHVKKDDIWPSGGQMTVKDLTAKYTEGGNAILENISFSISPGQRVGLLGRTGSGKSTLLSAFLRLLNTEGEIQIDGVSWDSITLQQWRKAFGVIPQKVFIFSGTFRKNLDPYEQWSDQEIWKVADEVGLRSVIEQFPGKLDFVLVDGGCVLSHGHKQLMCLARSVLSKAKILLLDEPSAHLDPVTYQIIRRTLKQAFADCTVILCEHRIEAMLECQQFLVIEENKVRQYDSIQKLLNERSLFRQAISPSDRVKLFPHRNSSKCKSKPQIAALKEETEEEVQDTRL
As to the kind of experiment: FRT cell Ussing chamber chloride transport assay. Conditions: FRT cells expressing D110H CFTR.
Source text: as §1, §2, §3, §4, §5

Test [5] deals with T5, human CFTR mutant D1152H (Homo sapiens, UniProt P13569, D1152H).
T5 construct: expressed in transfected cells
T5 sequence (P13569 whole entry D1152H): as the sequence (P13569 whole entry D110H) above, with H110D, D1152H counted along it
As to the kind of experiment: FRT cell Ussing chamber chloride transport assay. The conditions noted are these: FRT cells expressing D1152H CFTR.
Source text: as §1, §2, §3, §4, §5

Test [6] concerns the target T6, human CFTR mutant D1270N (Homo sapiens, UniProt P13569, D1270N).
T6 construct: expressed in transfected cells; host or cells: Fisher rat thyroid (FRT) FlpIn cells, pcDNA5/FRT
As to the kind of experiment: FRT cell Ussing chamber chloride transport assay. The conditions noted are these: FRT cells expressing D1270N CFTR.
Source text: as §1, §2, §3, §4, §5

The target in test [7] is T7, human CFTR mutant D579G (Homo sapiens, UniProt P13569, D579G).
T7 construct: expressed in transfected cells; host or cells: Fisher rat thyroid (FRT) FlpIn cells, pcDNA5/FRT
T7 sequence (P13569 whole entry D579G): as the sequence (P13569 whole entry D110H) above, with H110D, D579G counted along it
As to the kind of experiment: FRT cell Ussing chamber chloride transport assay. Conditions: FRT cells expressing D579G CFTR.
Source text: as §1, §2, §3, §4, §5

Test [8] has as its target T8, human CFTR mutant E56K (Homo sapiens, UniProt P13569, E56K).
T8 construct: expressed in transfected cells; host or cells: Fisher rat thyroid (FRT) FlpIn cells, pcDNA5/FRT
Briefly: FRT cell Ussing chamber chloride transport assay. The conditions noted are these: FRT cells expressing E56K CFTR.
Source text: as §1, §2, §3, §4, §5

In test [9] the target is T9, human CFTR mutant F1074L (Homo sapiens, UniProt P13569, F1074L).
T9 construct: expressed in transfected cells; host or cells: Fisher rat thyroid (FRT) FlpIn cells, pcDNA5/FRT
T9 sequence (P13569 whole entry F1074L): as the sequence (P13569 whole entry D110H) above, with H110D, F1074L counted along it
Briefly: FRT cell Ussing chamber chloride transport assay. Conditions: FRT cells expressing F1074L CFTR.
Source text: as §1, §2, §3, §4, §5

The target in test [10] is T10, human CFTR mutant G1244E (Homo sapiens, UniProt P13569, G1244E).
T10 construct: expressed in transfected cells; host or cells: Fisher rat thyroid (FRT) FlpIn cells, pcDNA5/FRT
T10 sequence (P13569 whole entry G1244E): as the sequence (P13569 whole entry D110H) above, with H110D, G1244E counted along it
As to the kind of experiment: FRT cell Ussing chamber chloride transport assay. The conditions noted are these: FRT cells expressing G1244E CFTR.
Source text: as §1, §2, §3, §4, §5

The target of test [11] is T11, human CFTR mutant G1349D (Homo sapiens, UniProt P13569, G1349D).
T11 construct: expressed in transfected cells; host or cells: Fisher rat thyroid (FRT) FlpIn cells, pcDNA5/FRT
T11 sequence (P13569 whole entry G1349D): as the sequence (P13569 whole entry D110H) above, with H110D, G1349D counted along it
As to the kind of experiment: FRT cell Ussing chamber chloride transport assay. Conditions: FRT cells expressing G1349D CFTR.
Source text: as §1, §2, §3, §4, §5

Test [12] addresses T12, human CFTR mutant G178R (Homo sapiens, UniProt P13569, G178R).
T12 construct: expressed in transfected cells; host or cells: Fisher rat thyroid (FRT) FlpIn cells, pcDNA5/FRT
Briefly: FRT cell Ussing chamber chloride transport assay. Conditions: FRT cells expressing G178R CFTR.
Source text: as §1, §2, §3, §4, §5

Test [13] addresses T13, human CFTR mutant G551S (Homo sapiens, UniProt P13569, G551S).
T13 construct: expressed in transfected cells; host or cells: Fisher rat thyroid (FRT) FlpIn cells, pcDNA5/FRT
Briefly: FRT cell Ussing chamber chloride transport assay. The conditions noted are these: FRT cells expressing G551S CFTR.
Source text: as §1, §2, §3, §4, §5

Molecules are shown by their SMILES.

T6 sequence (P13569 whole entry D1270N): as the sequence (P13569 whole entry D110H) above, with H110D, D1270N counted along it
T8 sequence (P13569 whole entry E56K): as the sequence (P13569 whole entry D110H) above, with E56K, H110D counted along it
T13 sequence (P13569 whole entry G551S): as the sequence (P13569 whole entry D110H) above, with H110D, G551S counted along it
T12 sequence (P13569 whole entry G178R): as the sequence (P13569 whole entry D110H) above, with H110D, G178R counted along it
T3 sequence (P13569 whole entry D110E): as the sequence (P13569 whole entry D110H) above, with H110E counted along it
T2 sequence (P13569 whole entry A455E): as the sequence (P13569 whole entry D110H) above, with H110D, A455E counted along it
T1 sequence (P13569 with tags, fused parts or gaps DEL508-508): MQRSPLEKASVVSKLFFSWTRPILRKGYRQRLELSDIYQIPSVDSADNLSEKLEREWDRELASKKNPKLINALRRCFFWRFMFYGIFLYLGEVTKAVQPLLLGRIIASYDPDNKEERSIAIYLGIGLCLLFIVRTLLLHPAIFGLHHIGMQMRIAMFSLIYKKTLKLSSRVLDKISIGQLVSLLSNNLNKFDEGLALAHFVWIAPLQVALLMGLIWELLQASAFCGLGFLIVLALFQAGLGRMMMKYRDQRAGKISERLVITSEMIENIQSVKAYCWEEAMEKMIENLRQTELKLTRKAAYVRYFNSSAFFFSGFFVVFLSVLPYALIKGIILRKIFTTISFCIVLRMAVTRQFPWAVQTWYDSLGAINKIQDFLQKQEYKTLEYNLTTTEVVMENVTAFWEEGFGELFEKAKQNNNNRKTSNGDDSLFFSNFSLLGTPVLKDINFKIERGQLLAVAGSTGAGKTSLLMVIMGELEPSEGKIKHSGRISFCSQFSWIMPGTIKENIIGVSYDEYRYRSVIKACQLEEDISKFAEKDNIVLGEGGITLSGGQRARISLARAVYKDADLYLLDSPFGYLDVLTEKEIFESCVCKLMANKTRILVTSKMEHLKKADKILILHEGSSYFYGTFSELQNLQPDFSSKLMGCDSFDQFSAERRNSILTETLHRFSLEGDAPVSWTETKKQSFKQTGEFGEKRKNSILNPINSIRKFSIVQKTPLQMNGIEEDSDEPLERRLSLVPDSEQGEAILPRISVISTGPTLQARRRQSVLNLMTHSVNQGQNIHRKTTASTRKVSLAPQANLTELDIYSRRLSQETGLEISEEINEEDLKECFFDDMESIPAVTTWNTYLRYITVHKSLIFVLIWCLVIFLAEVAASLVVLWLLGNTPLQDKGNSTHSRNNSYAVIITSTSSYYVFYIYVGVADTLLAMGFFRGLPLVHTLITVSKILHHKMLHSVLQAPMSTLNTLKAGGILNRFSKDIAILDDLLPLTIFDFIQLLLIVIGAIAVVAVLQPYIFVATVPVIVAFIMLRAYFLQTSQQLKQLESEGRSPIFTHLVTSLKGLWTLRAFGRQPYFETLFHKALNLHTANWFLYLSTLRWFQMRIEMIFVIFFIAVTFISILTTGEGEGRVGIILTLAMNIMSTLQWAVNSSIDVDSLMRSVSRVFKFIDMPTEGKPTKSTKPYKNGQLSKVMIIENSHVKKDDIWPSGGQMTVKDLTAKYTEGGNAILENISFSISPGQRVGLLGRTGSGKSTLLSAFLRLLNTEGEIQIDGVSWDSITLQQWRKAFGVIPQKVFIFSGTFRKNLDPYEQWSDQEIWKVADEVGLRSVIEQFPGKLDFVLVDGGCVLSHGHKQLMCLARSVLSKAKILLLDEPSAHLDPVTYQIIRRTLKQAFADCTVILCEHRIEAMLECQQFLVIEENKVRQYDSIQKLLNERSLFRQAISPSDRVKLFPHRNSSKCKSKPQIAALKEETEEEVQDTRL

Consider `CC(C)(C)c1cc(C(C)(C)C)c(NC(=O)c2c[nH]c3ccccc3c2=O)cc1O` [Compound 1, N-[2,4-bis(1,1-dimethylethyl)-5-hydroxyphenyl]-1,4-dihydro-4-oxoquinoline-3-carboxamide], for which the “% Activity” value in test [1] is given as “++ (“++” means between 25% to 100%)”. Further, the “increase in chloride transport, relative to baseline chloride transport” value in [2], in test [3], in [4], in [5], in test [6] and in test [7] was “greater than or equal to 10%” throughout. Besides, the “increase in chloride transport, relative to baseline chloride transport” value in [8] is recorded as “greater than or equal to 10%”; in test [9] it was “greater than or equal to 10%”; in [10] it was “greater than 10 fold”; in test [11], “greater than 10 fold”; in test [12], “greater than 10 fold”; in [13], “greater than 10 fold”.
